17 compounds from PubChem BioAssay AID248 (DTP/NCI, 2004) can be followed below.

In the assay the test system is L1210 leukemia ip in BDF1 mice, survival T/C. The assay can be described thus: NCI In Vivo Anticancer Drug Screen. Data for tumor model L1210 Leukemia (intraperitoneal) in B6D2F1 (BDF1) mice. To be noted: endpoint: mean survival time, higher = longer survival. The gist of the method: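 Mice bearing the transplanted tumor received compound or vehicle. Survival of the treated group was divided by that of the vehicle-treated control group to give the ratio.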

[1] abbreviates: dose: 100.0 mg/kg/injection, schedule: Q04DX002 (ip), vehicle: saline.
The mark [2] stands for this setting: dose: 200.0 mg/kg/injection, schedule: Q04DX002 (ip), vehicle: saline.
Where [3] appears, read: dose: 400.0 mg/kg/injection, schedule: Q04DX002 (ip), vehicle: saline.
[4] abbreviates: dose: 100.0 mg/kg/injection, schedule: Q04DX003 (ip), vehicle: saline with Tween-80.
The mark [5] stands for this setting: dose: 50.0 mg/kg/injection, schedule: Q01DX001 (ip), vehicle: saline.
Where [6] appears, read: dose: 100.0 mg/kg/injection, schedule: Q04DX003 (ip), vehicle: Klucel (hydroxypropylcellulose) (HPC).
[7] abbreviates: dose: 200.0 mg/kg/injection, schedule: Q04DX003 (ip), vehicle: Klucel (hydroxypropylcellulose) (HPC).

Inconclusive results and toxic doses are left out.

Take `O=C1OC(C(O)C(O)C(O)CO)C(O)C1O` (configuration not stated): the T/C runs as follows: under setting [1], 96 % of control; under setting [2], 96 % of control; under setting [3], 108 % of control.
For the compound `O=C(N/N=C\c1cc(Br)cc(Br)c1O)N/N=C/c1cc(Br)cc(Br)c1O`, the T/C reads like this: (dose: 100.0 mg/kg/injection, schedule: Q04DX002 (ip), vehicle: saline with Tween-80) 108 % of control; (dose: 200.0 mg/kg/injection, schedule: Q04DX002 (ip), vehicle: saline with Tween-80) 95 % of control; (dose: 400.0 mg/kg/injection, schedule: Q04DX002 (ip), vehicle: saline with Tween-80) 92 % of control.
In the case of `CN(C)CCCN1c2ccc(O)cc2Sc2ccc(Cl)cc21`, the T/C is, setting by setting: (dose: 3.1 mg/kg/injection, schedule: Q01DX009 (ip), vehicle: other) 90 % of control; (dose: 6.2 mg/kg/injection, schedule: Q01DX009 (ip), vehicle: other) 94 % of control; (dose: 12.5 mg/kg/injection, schedule: Q01DX009 (ip), vehicle: other) 94 % of control; (dose: 25.0 mg/kg/injection, schedule: Q01DX009 (ip), vehicle: other) 97 % of control; (dose: 50.0 mg/kg/injection, schedule: Q04DX003 (ip), vehicle: saline with Tween-80) 103 % of control; under setting [4], 103 % of control.
Turning to `N#Cc1ccc(CCc2ccccc2)cc1`, the T/C by setting is: under setting [5], 102 % of control; (dose: 100.0 mg/kg/injection, schedule: Q01DX001 (ip), vehicle: saline) 102 % of control; (dose: 200.0 mg/kg/injection, schedule: Q01DX001 (ip), vehicle: saline) 101 % of control; (dose: 400.0 mg/kg/injection, schedule: Q01DX001 (ip), vehicle: saline) 102 % of control.
As for `O=C(NCCCCCCNC(=O)N1CC1)N1CC1`, the T/C (dose: 0.08 mg/kg/injection, schedule: Q01DX009 (ip), vehicle: saline) was 107 % of control; the T/C (dose: 0.15 mg/kg/injection, schedule: Q01DX009 (ip), vehicle: saline) was 97 % of control; the T/C (dose: 0.19 mg/kg/injection, schedule: Q01DX009 (ip), vehicle: saline) was 122 % of control; the T/C (dose: 0.3 mg/kg/injection, schedule: Q01DX009 (ip), vehicle: saline) is 119 % of control; the T/C (dose: 0.4 mg/kg/injection, schedule: Q04DX003 (ip), vehicle: saline) was 113 % of control; the T/C (dose: 0.66 mg/kg/injection, schedule: Q01DX009 (ip), vehicle: saline) was 168 % of control. Besides, the T/C is 115 % of control (dose: 0.8 mg/kg/injection, schedule: Q04DX003 (ip), vehicle: saline); 117 % of control (dose: 1.4 mg/kg/injection, schedule: Q01DX009 (ip), vehicle: saline); 121 % of control (dose: 1.7 mg/kg/injection, schedule: Q01DX001 (ip), vehicle: saline); 86 % of control (dose: 2.2 mg/kg/injection, schedule: Q01DX009 (ip), vehicle: saline); 166 % of control (dose: 2.5 mg/kg/injection, schedule: Q04DX003 (ip), vehicle: saline); 150 % of control (dose: 3.75 mg/kg/injection, schedule: Q01DX001 (ip), vehicle: saline).
Regarding `NC(=O)NOCc1ccc([N+](=O)[O-])cc1`, the T/C is, setting by setting: (dose: 100.0 mg/kg/injection, schedule: Q04DX003 (ip), vehicle: saline) 98 % of control; (dose: 200.0 mg/kg/injection, schedule: Q04DX003 (ip), vehicle: saline) 101 % of control; (dose: 400.0 mg/kg/injection, schedule: Q04DX003 (ip), vehicle: saline) 115 % of control.
As for `CCCCCCCCCCCCCCCCOc1ccc(S(=O)(=O)N2CCOCC2)cc1[N+](=O)[O-]`, the T/C was 103 % of control (dose: 75.0 mg/kg/injection, schedule: Q04DX003 (ip), vehicle: saline); 97 % of control (dose: 100.0 mg/kg/injection, schedule: Q01DX001 (ip), vehicle: Klucel (hydroxypropylcellulose) (HPC)); 93 % of control (dose: 150.0 mg/kg/injection, schedule: Q04DX003 (ip), vehicle: saline); 104 % of control (dose: 200.0 mg/kg/injection, schedule: Q01DX001 (ip), vehicle: Klucel (hydroxypropylcellulose) (HPC)); 95 % of control (dose: 300.0 mg/kg/injection, schedule: Q04DX003 (ip), vehicle: saline); 104 % of control (dose: 400.0 mg/kg/injection, schedule: Q01DX001 (ip), vehicle: Klucel (hydroxypropylcellulose) (HPC)).
With `O=C1OC(=O)c2c(O)cccc21`, the T/C by setting is: (dose: 12.5 mg/kg/injection, schedule: Q01DX001 (ip), vehicle: saline) 101 % of control; (dose: 25.0 mg/kg/injection, schedule: Q01DX001 (ip), vehicle: saline) 105 % of control; (dose: 25.0 mg/kg/injection, schedule: Q01DX009 (ip), vehicle: saline with Tween-80) 98 % of control; under setting [5], 103 % of control; (dose: 50.0 mg/kg/injection, schedule: Q01DX009 (ip), vehicle: saline with Tween-80) 104 % of control; (dose: 100.0 mg/kg/injection, schedule: Q01DX009 (ip), vehicle: saline with Tween-80) 98 % of control. The T/C (dose: 150.0 mg/kg/injection, schedule: Q01DX009 (ip), vehicle: saline with Tween-80) was 118 % of control.
`CC1(C)OC2OC(/C=C\C=O)C3OC(C)(C)OC3C2O1` (configuration not stated): the T/C is, setting by setting: (dose: 100.0 mg/kg/injection, schedule: Q04DX003 (ip), vehicle: acetone) 100 % of control; (dose: 200.0 mg/kg/injection, schedule: Q04DX003 (ip), vehicle: acetone) 104 % of control.
`CC12CCC3C(CC(=O)C45OC4C(O)CCC35C)C1CCC2=O` (configuration not stated): the T/C by setting is: (dose: 100.0 mg/kg/injection, schedule: Q01DX001 (sc), vehicle: steriod suspending solution) 114 % of control; (dose: 200.0 mg/kg/injection, schedule: Q01DX001 (sc), vehicle: steriod suspending solution) 114 % of control; (dose: 400.0 mg/kg/injection, schedule: Q01DX001 (sc), vehicle: steriod suspending solution) 121 % of control.
`O=Cc1cccc(OCc2cccc([N+](=O)[O-])c2)c1`: the T/C reads like this: (dose: 100.0 mg/kg/injection, schedule: Q01DX009 (ip), vehicle: Klucel (hydroxypropylcellulose) (HPC)) 98 % of control; (dose: 100.0 mg/kg/injection, schedule: Q04DX002 (ip), vehicle: Klucel (hydroxypropylcellulose) (HPC)) 108 % of control; under setting [1], 102 % of control; (dose: 200.0 mg/kg/injection, schedule: Q01DX009 (ip), vehicle: Klucel (hydroxypropylcellulose) (HPC)) 102 % of control; (dose: 200.0 mg/kg/injection, schedule: Q04DX002 (ip), vehicle: Klucel (hydroxypropylcellulose) (HPC)) 105 % of control; under setting [2], 97 % of control. For the same compound, the T/C is, setting by setting: (dose: 400.0 mg/kg/injection, schedule: Q01DX009 (ip), vehicle: Klucel (hydroxypropylcellulose) (HPC)) 95 % of control; (dose: 400.0 mg/kg/injection, schedule: Q04DX002 (ip), vehicle: Klucel (hydroxypropylcellulose) (HPC)) 97 % of control; under setting [3], 108 % of control.
With `NCCSCCc1ccccc1`, the T/C runs as follows: (dose: 25.0 mg/kg/injection, schedule: Q04DX002 (ip), vehicle: saline with Tween-80) 100 % of control; (dose: 50.0 mg/kg/injection, schedule: Q04DX002 (ip), vehicle: saline with Tween-80) 103 % of control.
On to `O=c1[nH]nc(S(=O)(=O)N2CCCC2)c(=O)[nH]1`, for which the T/C is, setting by setting: (dose: 100.0 mg/kg/injection, schedule: Q01DX001 (ip), vehicle: carboxymethylcellulose (CMC)) 98 % of control; (dose: 200.0 mg/kg/injection, schedule: Q01DX001 (ip), vehicle: carboxymethylcellulose (CMC)) 98 % of control; (dose: 400.0 mg/kg/injection, schedule: Q01DX001 (ip), vehicle: carboxymethylcellulose (CMC)) 93 % of control.
`C/C=C1/CC(C)C(O)(CO)C(=O)OCC2=CCN3CCC(OC1=O)C23` (configuration not stated): where the note is “dose: 75.0 mg/kg/injection, schedule: Q01DX001 (ip), vehicle: carboxymethylcellulose (CMC)”, the T/C is 100 % of control.
On to `O=C(CC(O)(C(F)(F)F)C(F)(F)F)c1ccccc1Br`, for which the T/C under setting [4] is 97 % of control; the T/C (dose: 200.0 mg/kg/injection, schedule: Q04DX003 (ip), vehicle: saline with Tween-80) was 97 % of control; the T/C (dose: 400.0 mg/kg/injection, schedule: Q04DX003 (ip), vehicle: saline with Tween-80) is 95 % of control.
`CCC1C(=O)N(c2ccc(S(=O)(=O)O)cc2)N=C1C` (configuration not stated): the T/C under setting [6] is 95 % of control and the T/C under setting [7] is 95 % of control.
For the compound `O=C(NCCCl)NN1CCCCC1`, the T/C was 113 % of control (dose: 50.0 mg/kg/injection, schedule: Q04DX003 (ip), vehicle: Klucel (hydroxypropylcellulose) (HPC)); 113 % of control under setting [6]; 113 % of control under setting [7].
